Data published in patent US12643871B2, “Aryl formamide compound containing chiral sulfur oxide or salt thereof, preparation method, herbicidal composition and use thereof” (Qingdao Kingagroot Chemical Compound Co., Ltd., priority 2019, dated 2026).

Assays:
Assay in all cases: Weeding effect in post-emergence stage
Type in all cases: in vivo
Settings in all cases: 250 g/ha; 2 leaf stage; 15 days after application; fresh weight control rate
Amaranthus retroflexus = tested on: Amaranthus retroflexus
Procedure, shortened: (§1)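 Reported levels reflect fresh weight growth control rate banded 0 (<5%) through 5 (>85%), averaged over three repetitions. Treatment: foliar spray of 2-leaf-stage greenhouse plants at 15 to 500 g/ha, with 1.5 liter/ha methyl oleate synergist; assessment 15 days after application.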

Echinochloa crusgali = tested on: Echinochloa crusgali
Procedure, shortened: as §1

Digitaria sanguinalis = tested on: Digitaria sanguinalis
Procedure, shortened: as §1

Abutilon theophrasti = tested on: Abutilon theophrasti
Procedure, shortened: as §1

Setaria viridis = tested on: Setaria viridis
Procedure, shortened: as §1

Row | SMILES | weeding effect in post-emergence stage, activity level (growth control rate), Amaranthus retroflexus (Amaranthus retroflexus) | weeding effect in post-emergence stage, activity level (growth control rate), Echinochloa crusgali (Echinochloa crusgali) | weeding effect in post-emergence stage, activity level (growth control rate), Digitaria sanguinalis (Digitaria sanguinalis) | weeding effect in post-emergence stage, activity level (growth control rate), Abutilon theophrasti (Abutilon theophrasti) | weeding effect in post-emergence stage, activity level (growth control rate), Setaria viridis (Setaria viridis)
1 | CSc1c(C(=O)Nc2nnc(C)o2)ccc(C(F)(F)F)c1[S@+]([O-])CCCC(F)(F)F [Compound 561] | 5 (Level 5: growth control rate is above 85%) | 5 (Level 5: growth control rate is above 85%) | 5 (Level 5: growth control rate is above 85%) | 5 (Level 5: growth control rate is above 85%) | 5 (Level 5: growth control rate is above 85%)
2 | Cc1nnc(NC(=O)c2ccc(C(F)(F)F)c([S+]([O-])C(F)(F)C(F)(F)C(F)(F)F)c2F)o1 (stereo not drawn) [Compound 33] | 5 (Level 5: growth control rate is above 85%) | 5 (Level 5: growth control rate is above 85%) | 5 (Level 5: growth control rate is above 85%) | 5 (Level 5: growth control rate is above 85%) | 5 (Level 5: growth control rate is above 85%)
3 | Cc1c(C(=O)Nc2nnnn2C)ccc(S(C)(=O)=O)c1[S@+]([O-])CC(F)F [Compound 522] | 5 (Level 5: growth control rate is above 85%) | 5 (Level 5: growth control rate is above 85%) | 5 (Level 5: growth control rate is above 85%) | 5 (Level 5: growth control rate is above 85%) | 
4 | Cc1c(C(=O)Nc2nnnn2C)ccc(S(C)(=O)=O)c1[S@+]([O-])CCF [Compound 519] | 5 (Level 5: growth control rate is above 85%) | 5 (Level 5: growth control rate is above 85%) | 5 (Level 5: growth control rate is above 85%) | 5 (Level 5: growth control rate is above 85%) | 
5 | Cc1c(C(=O)Nc2nnnn2C)ccc(S(C)(=O)=O)c1[S@+]([O-])CC(F)(F)F [Compound 520] | 5 (Level 5: growth control rate is above 85%) | 5 (Level 5: growth control rate is above 85%) | 5 (Level 5: growth control rate is above 85%) | 5 (Level 5: growth control rate is above 85%) | 
6 | Cc1c(C(=O)Nc2nnnn2C)ccc(S(C)(=O)=O)c1[S@+]([O-])CCCl [Compound 525] | 5 (Level 5: growth control rate is above 85%) | 5 (Level 5: growth control rate is above 85%) | 5 (Level 5: growth control rate is above 85%) | 5 (Level 5: growth control rate is above 85%) | 
7 | CCC[S@@+]([O-])c1c(C(F)(F)F)ccc(C(=O)Nc2nnc(C)o2)c1SCOC [Compound 573] | 5 (Level 5: growth control rate is above 85%) | 5 (Level 5: growth control rate is above 85%) | 5 (Level 5: growth control rate is above 85%) | 5 (Level 5: growth control rate is above 85%) | 
8 | Cc1c(C(=O)Nc2nnnn2C)ccc(S(C)(=O)=O)c1[S@+]([O-])CC#N [Compound 527] | 5 (Level 5: growth control rate is above 85%) | 5 (Level 5: growth control rate is above 85%) | 5 (Level 5: growth control rate is above 85%) | 5 (Level 5: growth control rate is above 85%) | 
9 | CCC[S@@+]([O-])c1c(C(F)(F)F)ccc(C(=O)Nc2nnc(C)o2)c1C#N [Compound 546] | 5 (Level 5: growth control rate is above 85%) | 5 (Level 5: growth control rate is above 85%) | 5 (Level 5: growth control rate is above 85%) | 5 (Level 5: growth control rate is above 85%) | 
10 | CCC[S@@+]([O-])c1c(C(F)(F)F)ccc(C(=O)Nc2nnc(C)o2)c1C [Compound 537] | 5 (Level 5: growth control rate is above 85%) | 5 (Level 5: growth control rate is above 85%) | 5 (Level 5: growth control rate is above 85%) | 5 (Level 5: growth control rate is above 85%) | 
11 | Cc1c(C(=O)Nc2nnnn2C)ccc(S(C)(=O)=O)c1[S@+]([O-])CC(C)F (stereo partly drawn) [Compound 521] | 5 (Level 5: growth control rate is above 85%) | 5 (Level 5: growth control rate is above 85%) | 5 (Level 5: growth control rate is above 85%) | 5 (Level 5: growth control rate is above 85%) | 
12 | COCC[S@@+]([O-])c1c(S(C)(=O)=O)ccc(C(=O)Nc2nnnn2C)c1C [Compound 528] | 5 (Level 5: growth control rate is above 85%) | 5 (Level 5: growth control rate is above 85%) | 5 (Level 5: growth control rate is above 85%) | 5 (Level 5: growth control rate is above 85%) | 
13 | CCC[S@@+]([O-])c1c(C(F)(F)F)ccc(C(=O)Nc2nnc(C)o2)c1I [Compound 545] | 5 (Level 5: growth control rate is above 85%) | 5 (Level 5: growth control rate is above 85%) | 5 (Level 5: growth control rate is above 85%) | 5 (Level 5: growth control rate is above 85%) | 
14 | CCC[S@@+]([O-])c1c(C(F)(F)F)ccc(C(=O)Nc2nnc(C)o2)c1Br [Compound 544] | 5 (Level 5: growth control rate is above 85%) | 5 (Level 5: growth control rate is above 85%) | 5 (Level 5: growth control rate is above 85%) | 5 (Level 5: growth control rate is above 85%) | 
15 | Cc1c(C(=O)Nc2nnnn2C)ccc(S(C)(=O)=O)c1[S@+]([O-])CCC(F)(F)F [Compound 524] | 5 (Level 5: growth control rate is above 85%) | 5 (Level 5: growth control rate is above 85%) | 5 (Level 5: growth control rate is above 85%) | 5 (Level 5: growth control rate is above 85%) | 
16 | Cc1c(C(=O)Nc2nnnn2C)ccc(S(C)(=O)=O)c1[S@+]([O-])CCCF [Compound 523] | 5 (Level 5: growth control rate is above 85%) | 5 (Level 5: growth control rate is above 85%) | 5 (Level 5: growth control rate is above 85%) | 5 (Level 5: growth control rate is above 85%) | 
